According to patent US20260327211A1, “MODULATORS OF A POTASSIUM CHANNEL AND OF TRPV1 CHANNEL AND USES THEREOF” (Bsense Bio Therapeutics Ltd., priority 2023, published 2026):
Where two headings read alike, the source gives them in different places.

Experiments:
[1] = CYP inhibition / time-dependent inhibition, CYP3A4_Midazolam; type: in vitro ADME, human; conditions: human, liver microsomes, role: inhibitor
Protocol: (§1) The time-dependent inactivation potency of the test compound to CYP enzymatic activities was assessed by the pre-incubation of the human liver microsomes with the test compound in the presence and absence of NADPH, followed by the incubation with the discrete marker substrates, as follows.
(§2) Pre-incubation with human liver microsomes (HLMs): The TDI inactivation potency on CYP enzymatic activities was evaluated through pre-incubation with HLMs (Corning). A liver microsome mixture at a concentration of 0.1 mg/mL, and the test compound at 8 different concentrations (0, 0.05, 0.165, 0.5, 1.65, 5.0, 16.5, or 50.0 μM) was warmed at 37° C. for 10 minutes. Concurrently, a set of known time-dependent inactivators was also prepared in duplicate for comparison. Following this, NADPH (1.0 mM) was added to one group (Group 1), and an equal volume of potassium phosphate buffer to the second group (Group 2), marking the beginning of a 30-minute pre-incubation at 37° C.
(§3) Incubation: After pre-incubation, the marker substrate, or marker substrate plus NADPH was added to the mixture, thereby initiating the incubation. The duration of the incubation was dependent on the type of CYP isoform being evaluated. For example, with the CYP3A isoform, the mixture was incubated over 3 minutes utilizing midazolam as the marker substrate (2.0 μM), verapamil as the standard inactivator (3.5 μM).
(§4) Termination of Reaction: Following the incubation, ice-cooled acetonitrile containing the internal standard (IS) was added to halt the reactions. Metabolites generated from the marker substrates were then measured via LC-MS/MS, assessed based on peak area ratios of the analyte to IS.

CYP2C8 = target: T1, CYP2C8 (Homo sapiens, UniProt P10632); experiment: CYP inhibition / time-dependent inhibition, CYP2C8_Amodiaquine; type: in vitro ADME; conditions: role: inhibitor
T1 construct: pre-incubation of the human liver microsomes with the test compound; tissue Corning; host or cells: human liver microsomes
T1 sequence (P10632 1-490): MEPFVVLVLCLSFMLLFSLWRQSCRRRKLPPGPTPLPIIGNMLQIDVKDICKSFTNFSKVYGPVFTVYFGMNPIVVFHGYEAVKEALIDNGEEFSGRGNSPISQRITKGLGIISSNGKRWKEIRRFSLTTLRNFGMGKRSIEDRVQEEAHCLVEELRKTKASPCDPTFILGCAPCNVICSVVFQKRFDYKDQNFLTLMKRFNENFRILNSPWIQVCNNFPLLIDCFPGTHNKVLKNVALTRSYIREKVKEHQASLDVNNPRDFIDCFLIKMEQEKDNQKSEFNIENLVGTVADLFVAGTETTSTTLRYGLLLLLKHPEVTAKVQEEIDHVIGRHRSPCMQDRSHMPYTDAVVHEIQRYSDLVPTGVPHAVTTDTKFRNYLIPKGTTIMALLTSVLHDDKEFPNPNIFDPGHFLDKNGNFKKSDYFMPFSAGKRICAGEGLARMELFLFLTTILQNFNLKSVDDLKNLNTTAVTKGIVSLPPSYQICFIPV
Protocol: as §1, §2, §3, §4

CYP1A2 = target: T2, CYP1A2 (Homo sapiens, UniProt P05177); experiment: CYP inhibition / time-dependent inhibition, CYP1A2_Phenacetin; type: in vitro ADME; conditions: role: inhibitor
T2 construct: pre-incubation of the human liver microsomes with the test compound; tissue Corning; host or cells: human liver microsomes
T2 sequence (P05177 1-516): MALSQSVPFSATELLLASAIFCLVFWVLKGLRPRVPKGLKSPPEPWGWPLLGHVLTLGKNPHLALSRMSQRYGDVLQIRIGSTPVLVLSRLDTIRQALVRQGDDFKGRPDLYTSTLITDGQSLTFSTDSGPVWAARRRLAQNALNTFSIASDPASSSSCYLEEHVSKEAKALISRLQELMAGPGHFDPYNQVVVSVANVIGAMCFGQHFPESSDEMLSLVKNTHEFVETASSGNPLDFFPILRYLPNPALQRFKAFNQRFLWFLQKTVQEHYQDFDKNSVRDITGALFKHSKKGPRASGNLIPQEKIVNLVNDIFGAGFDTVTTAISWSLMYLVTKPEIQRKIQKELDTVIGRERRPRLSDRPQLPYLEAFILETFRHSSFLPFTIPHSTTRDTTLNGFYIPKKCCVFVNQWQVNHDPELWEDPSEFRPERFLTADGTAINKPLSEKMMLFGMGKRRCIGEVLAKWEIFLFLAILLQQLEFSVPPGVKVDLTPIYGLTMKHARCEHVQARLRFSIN
Protocol: as §1, §2, §3, §4

rats = experiment: Accelerating rotarod; type: in vivo, rat
Protocol: Rotarod: There were two days of training in which rats were trained at a constant speed of 5 RPM for 180 seconds. After each fall the rats were placed back on the rotating rod until 180 seconds were reached. Then, the actual test started on study day 0 using the accelerating rotarod methodology. Animals were placed on the rod, which was accelerated 5-40 RPM over 180 seconds. Acceleration rate (0.19 RPM/second) was calculated from delta velocity (v2−v1) divided by delta time (t2−t1). The time to the first fall of each animal was documented, in addition to the distance and speed.

CYP2B6 = target: T3, CYP2B6 (Homo sapiens, UniProt P20813); experiment: CYP inhibition / time-dependent inhibition, CYP2B6_Bupropion; type: in vitro ADME; conditions: role: inhibitor
T3 construct: pre-incubation of the human liver microsomes with the test compound; tissue Corning; host or cells: human liver microsomes
T3 sequence (P20813 1-491): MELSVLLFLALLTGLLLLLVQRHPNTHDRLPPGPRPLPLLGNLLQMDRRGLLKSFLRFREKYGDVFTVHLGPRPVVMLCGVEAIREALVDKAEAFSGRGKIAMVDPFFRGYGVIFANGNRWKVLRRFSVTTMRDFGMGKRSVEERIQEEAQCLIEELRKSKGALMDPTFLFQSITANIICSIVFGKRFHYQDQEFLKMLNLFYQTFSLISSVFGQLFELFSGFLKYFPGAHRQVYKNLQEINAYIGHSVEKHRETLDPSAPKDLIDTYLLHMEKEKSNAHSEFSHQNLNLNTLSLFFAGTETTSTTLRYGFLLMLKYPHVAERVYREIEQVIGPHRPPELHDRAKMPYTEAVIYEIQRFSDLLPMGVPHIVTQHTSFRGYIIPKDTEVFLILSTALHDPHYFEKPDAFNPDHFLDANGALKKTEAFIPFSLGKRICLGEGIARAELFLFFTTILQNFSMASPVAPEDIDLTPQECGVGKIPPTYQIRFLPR

CYP2D6 = target: T4, CYP2D6 (Homo sapiens, UniProt P10635); experiment: CYP inhibition / time-dependent inhibition, CYP2D6_Dextromethorphan; type: in vitro ADME; conditions: role: inhibitor
T4 construct: pre-incubation of the human liver microsomes with the test compound; tissue Corning; host or cells: human liver microsomes
T4 sequence (P10635 whole entry): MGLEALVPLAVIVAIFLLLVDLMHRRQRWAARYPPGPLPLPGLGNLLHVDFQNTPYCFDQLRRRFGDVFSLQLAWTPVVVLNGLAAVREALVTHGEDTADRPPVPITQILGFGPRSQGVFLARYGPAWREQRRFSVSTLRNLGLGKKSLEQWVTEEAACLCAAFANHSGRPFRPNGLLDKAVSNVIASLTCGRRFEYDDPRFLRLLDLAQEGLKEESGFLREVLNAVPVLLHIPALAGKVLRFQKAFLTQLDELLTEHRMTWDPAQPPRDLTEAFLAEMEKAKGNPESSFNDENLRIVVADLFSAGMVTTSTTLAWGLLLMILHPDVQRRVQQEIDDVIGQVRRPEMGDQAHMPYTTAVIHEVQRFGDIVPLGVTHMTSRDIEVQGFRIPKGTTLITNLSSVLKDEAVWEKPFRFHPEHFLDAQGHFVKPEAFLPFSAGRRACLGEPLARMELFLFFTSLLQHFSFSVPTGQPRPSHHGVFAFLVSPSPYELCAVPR
Protocol: as §1, §2, §3, §4

IC50 ([1]; (+)NADPH pre-incubation, substrate midazolam 2.0 μM, read-out: IC50 (+)NADPH CYP3A4_Midazolam) [µM] | IC50 ([1]; (−)NADPH pre-incubation, substrate midazolam 2.0 μM, read-out: IC50 (−)NADPH CYP3A4_Midazolam) [µM] | IC50 (CYP2C8; (+)NADPH pre-incubation, substrate amodiaquine, read-out: IC50 (+)NADPH CYP2C8_Amodiaquine) [µM] | IC50 (CYP2C8; (−)NADPH pre-incubation, substrate amodiaquine, read-out: IC50 (−)NADPH CYP2C8_Amodiaquine) [µM] | IC50 (CYP1A2; (+)NADPH pre-incubation, substrate phenacetin, read-out: IC50 (+)NADPH CYP1A2_Phenacetin) [µM] | IC50 (CYP1A2; (−)NADPH pre-incubation, substrate phenacetin, read-out: IC50 (−)NADPH CYP1A2_Phenacetin) [µM] | IC50 (CYP2B6; (+)NADPH pre-incubation, substrate bupropion, read-out: IC50 (+)NADPH CYP2B6_Bupropion) [µM] | IC50 (CYP2B6; (−)NADPH pre-incubation, substrate bupropion, read-out: IC50 (−)NADPH CYP2B6_Bupropion) [µM] | IC50 (CYP2D6; (+)NADPH pre-incubation, substrate dextromethorphan, read-out: IC50 (+)NADPH CYP2D6_Dextromethorphan) [µM] | IC50 (CYP2D6; (−)NADPH pre-incubation, substrate dextromethorphan, read-out: IC50 (−)NADPH CYP2D6_Dextromethorphan) [µM] | SMILES | Rotarod performance (rats; 20 and 50 mg/kg PO, 1 and 4 hour post-dose) | IC50 ([1]; Table 9, substrate midazolam, read-out: CYP inhibition IC50 CYP3A-Midazolam) [µM] | IC50 (CYP2C8; Table 9, read-out: CYP inhibition IC50 CYP2C8) [µM] | IC50 (CYP1A2; Table 9, read-out: CYP inhibition IC50 CYP1A2) [µM] | Rotarod (rats; up to 300 mg/kg oral) | IC50 (CYP2B6; Table 9, read-out: CYP inhibition IC50 CYP2B6) [µM] | IC50 (CYP2D6; Table 9, read-out: CYP inhibition IC50 CYP2D6) [µM]
19.5 | 30.5 | 16.5 | 14.3 | > 50 | > 50 | 8.91 | 11 | 31.7 | 28.5 | O=C(Cc1cncc(-n2cc(Cl)c3cc(Cl)cc(Cl)c32)c1)N[C@@H]1COC[C@H]1O [Compound 661] | did not affect rotarod performance |  |  |  |  |  | 
 |  |  |  |  |  |  |  |  |  | O=C(Cc1nccc(-n2cc(Cl)c3cc(Cl)cc(Cl)c32)n1)NC1COCC1O (centres unmarked) [Compound 760] |  | > 50 | 49.2 | > 50 | displayed safety potential at up to 300 mg/kg oral dosing | 34.9 | > 50
